Like-named read-outs stand apart in the source and are kept apart here.
Assays:
[1] = system: phosphorylated Rb protein in A549 cells; experiment: Rb phosphorylation (immunofluorescent imaging); assay type: cell-based; settings: Homo sapiens, read-out: IC50 for reduction in Rb phosphorylation
Protocol: Compound 7e was analyzed for effects on various aspects of cell cycle progression in human cancer cells. These studies were carried out using cells derived from lung adenocarcinoma (A549). This follow-up assessment of activity tested compounds used immunofluorescent imaging of phosphorylated Rb protein and the total DNA content of each cell to determine the cell cycle phase. The ability of the test compounds to affect the cell cycle and Rb phosphorylation was tested over a range of concentrations from less than 100 nM to 50 μM.
Fig 5 Dose-dependent changes in cell cycle. Distribution of cells within the cell cycle as well as total cell numbers were quantitated by fluorescent staining of nuclear DNA with DAPI. Phosphorylated Rb protein was detected by indirect immunofluorescence followed by automated image acquisition and analysis. […] All IC50 values are given under one unlabelled substance, with the y-axis title of each plot written in front as the measure.
A549 cells were harvested from a 90% confluent 10 cm dish and diluted in growth medium. An appropriate concentration of cells were prepared to add 5,000 cells in a volume of 100 µL per well in tissue culture treated PerkinElmer optical bottom ViewPlate microplates, then incubated overnight at 37°C. The following day, compound 7e and the positive control, sunitinib, were diluted in DMSO to concentrations 1000-fold above the maximum tested concentration.
Concentrated dosing solutions of twice the final concentration were prepared by dilution of the DMSO stocks 1:500 in growth media. Three-fold dilutions of each dosing medium were then prepared in medium containing 0.2% DMSO to maintain a constant concentration of vehicle throughout the concentration range of each compound. Each of these was added in equal volume (100 µL) to each well on the assay plate, along with the vehicle control. One plate of cells was incubated with the compounds for a further 24 h, and a separate plate was incubated with the compounds for 48 h.
At the end of the respective treatment periods, 150 µL per well of neutral buffered formalin fixative (10% paraformaldehyde) was rapidly added to each plate and incubated at room temperature for 20 min. […] Phosphorylated Rb protein (p-Rb) was detected by 1 h incubation with anti-p-Rb rabbit monoclonal antibody (Cell Signaling #8516) diluted 1:1600 in antibody dilution buffer (1% bovine serum albumin and 0.3% Triton X-100 in PBS). […] Anti-Phospho Ser807/811-Rb antibody (Cell Signalling cat #8516) was detected by 1 h incubation with goat anti-rabbit AlexaFluor 488 conjugate (InVitrogen cat #A-11008) diluted 1:500 in antibody dilution buffer. […] Fluorescent micrographs were analyzed using Molecular Devices MetaXpress multi-wavelength scoring image analysis program to quantitate Rb phosphorylation. […]

A549 = experiment: Anti-proliferative activity, cell growth inhibition (CellTiterGlo, 72 h); assay type: cell-based, human; settings: Homo sapiens; for IC50: A549, 72 h, read-out: IC50 A-549; for inhibition at 30 µM: A549, quadruplicate, read-out: Cell growth inhibitory activity, A-549
Protocol: (§1) Twenty compounds, i.e. 4a-o and 7a-e, were analyzed for cancer cell growth inhibitory activity. These studies were carried out using cells derived from human lung, colon and breast tumors (A549, HT-29 and ZR-75 cells, respectively). This initial assessment of activity tested each compound in quadruplicate at a single concentration of 30 μM, if solubility permitted.
(§2) A549, HT-29, ZR-75 were obtained from the American Type Culture Collection (ATCC). Cells were harvested from 90-95% confluent 10 cm dishes, and diluted in growth media (RPMI-1640 supplemented with 5% fetal bovine serum). An appropriate concentration of cells were prepared to add 1,250 cells in a volume of 25 µL per well in tissue culture treated Griener 384-well microplates, then incubated overnight at 37°C. Compound 7e was diluted to a concentration of 30 µM in DMSO. Concentrated dosing solutions of twice the final concentration were prepared by dilution of the DMSO stocks 1:500 in growth media. Two-fold serial dilutions were then prepared in medium containing 0.2% DMSO to maintain a constant concentration of vehicle throughout the concentration range of the compound. Each of these was added in an equal volume (25 µL) to four wells on each cell assay plate, along with the vehicle control. The highest concentration for serial dilutions of the positive control (sunitinib) was prepared exactly as the experimental compound 7e. Cells were incubated with the compounds for a further 72 h.
(§3) At the end of the treatment period, assay plates were allowed to cool to RT for 10 min prior to the addition of 25 µL per well Promega CellTiterGlo reagent, followed by additional 10 min incubation at RT. The resulting luminescence was quantitated using a Molecular Devices Spectramax Paradigm.
(§4) Percent growth inhibition was calculated as follows, where 100 represents the viability of vehicle treated control samples:
(§5) The potency of compounds was determined using the non-linear dose response algorithm (four-parameter logistic fit) with GraphPad Prism 5 software.

ZR-75 = experiment: as above; assay type: cell-based, human; settings: Homo sapiens; for IC50: ZR75, 72 h; for inhibition at 30 µM: ZR75, quadruplicate, read-out: Cell growth inhibitory activity, ZR-75
Protocol: as §1, §2, §3, §4, §5

HT-29 = experiment: as above; assay type: cell-based, human; settings: Homo sapiens; for IC50: HT-29, 72 h, 72 h; for inhibition at 30 µM: HT-29, quadruplicate, read-out: Cell growth inhibitory activity, HT-29
Protocol: as §1, §2, §3, §4, §5

[2] = system: HT-29, ZR-75 and A-549 cell lines; experiment: Average anti-proliferative activity over the three cancer cell lines; assay type: cell-based, human; settings: Homo sapiens, average of HT-29, ZR-75, A-549; for inhibition at 30 µM: read-out: Average Growth Inhibition %
Protocol: as §1
Therefore, they were subjected to quantitative inhibitory concentration 50% (IC50) determination for their cell growth inhibitory activity towards the A549, HT-29 and ZR-75 cancer cell lines.
as §2, §5

| SMILES | IC50 ([1]; A549, 24 h) [nM] | IC50 ([1]; A549, 48 h) [nM] | IC50 (A549) [µM] | inhibition at 30 µM (A549) [%] | IC50 (ZR-75) [µM] | inhibition at 30 µM (ZR-75) [%] | IC50 (HT-29) [µM] | inhibition at 30 µM (HT-29) [%] | inhibition at 30 µM [2] [%] | IC50 [2] [µM] |
| --- | --- | --- | --- | --- | --- | --- | --- | --- | --- | --- |
| O=C1Nc2ccc(Br)cc2C1=NN=C1C(=O)N(Cc2ccccc2)c2ccccc21 [Compound 7e, 1-Benzyl-3-((5-bromo-2-oxoindolin-3-ylidene)hydrazono)indolin-2-one] | 2550 | 2470 | 2.83 | 97.1 ± 3.3 | 1.79 | 96.1 ± 4.6 | 2.49 | 95.7 ± 4.2 | 96.3 | 2.37 |
| CCN(CC)CCNC(=O)c1c(C)[nH]c(/C=C2\C(=O)Nc3ccc(F)cc32)c1C [Sunitinib, sunitinib, reference compound] | 3160 | 14000 | 5.87 | 85.7 ± 2.7 | 8.31 | 90.7 ± 4.5 | 10.1 | 59.5 ± 2.3 | 78.7 | 8.11 |

— paper PMC5526551, “New hydrazonoindolin-2-ones: Synthesis, exploration of the possible anti-proliferative mechanism of action and encapsulation into PLGA microspheres” (PLoS ONE, 2017)
